The nature of series [1]: Plasma absorption time course of lactulose and galactose after oral administration (findings stated in the summary). The format is in vivo.
The target in series [2] is H-2 receptors on the parietal cell (Homo sapiens, UniProt P25021). The following applies: human subjects, administered intravenously; cited from earlier work.
For another series, the system named is gastric ulcers. The following applies: foals, ulcers associated with intravenous administration of high-dose NSAIDs; cited from earlier work.

Bounds are passed on as bounds.

Chain of H-2 receptors on the parietal cell (P25021 whole entry): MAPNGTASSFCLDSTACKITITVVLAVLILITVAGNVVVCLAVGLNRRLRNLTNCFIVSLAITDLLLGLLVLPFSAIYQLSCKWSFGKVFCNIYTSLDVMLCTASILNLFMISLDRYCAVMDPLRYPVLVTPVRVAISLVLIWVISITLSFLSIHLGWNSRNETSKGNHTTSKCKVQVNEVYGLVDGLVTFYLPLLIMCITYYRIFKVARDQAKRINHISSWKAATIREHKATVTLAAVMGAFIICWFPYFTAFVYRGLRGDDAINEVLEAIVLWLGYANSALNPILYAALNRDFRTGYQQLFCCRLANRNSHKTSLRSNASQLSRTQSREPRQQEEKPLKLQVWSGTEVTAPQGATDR

With `OC[C@H]1O[C@@H](O[C@@H]2[C@@H](CO)OC(O)(CO)[C@H]2O)[C@H](O)[C@@H](O)[C@H]1O` (mixture of isomers) [Lactulose, lactulose], the “Time after which the rate of lactulose absorption slows” value in series [1] (after oral administration) is listed as “approximately 60 minutes”. Moreover, the “Period over which lactulose absorption occurs” value in series [1] (health and disease states, after oral administration) is “up to 3 hours”.

As for `O=C[C@H](O)[C@@H](O)[C@@H](O)[C@H](O)CO` [galactose], the “Time at which galactose absorption peaks” value in series [1] (after oral administration) was at most 15 min. The “Time galactose remains present in plasma at measurable micromolar concentrations” value in series [1] (after oral administration, majority of individuals tested) is “approximately 60 minutes”. For the same compound, the “Time to peak plasma concentrations of galactose” value in series [1] (galactose concentrations below 2% in the oral solution) was at most 5 min.

For the compound `NC(N)=Nc1nc(CSCCC(N)=NS(N)(=O)=O)cs1` [famotidine], the “Time to pharmacological tolerance” value in series [2] is reported as 12-72 hours.

For sucralfate, in the series on gastric ulcers, the “Effect on gastric ulcers” value is “protective effect”.

Source of the values: patent US20240345095A1, “AN ASSAY FOR DETERMINING GASTROINTESTINAL PERMEABILITY BY DETERMINING A RATIO OF THE CONCENTRATION OF LACTULOSE TO THE CONCENTRATION OF GALACTOSE IN THE BLOOD SAMPLE” (TriviumVet Designated Activity Company, priority 2021, published 2024).
